Experimental data reported in PubChem BioAssay AID248 (DTP/NCI, 2004).
Several values for one entry are separate records, joined by “and”; a condition that tells them apart may be missing. Identical values can stand only once. Inconclusive results and toxic doses are left out. Cut-off read from the data, not from the text of the source: active = T/C of 150% or more; inactive = T/C below 125%.

Test system: L1210 leukemia ip in BDF1 mice, survival T/C
Test: NCI In Vivo Anticancer Drug Screen. Data for tumor model L1210 Leukemia (intraperitoneal) in B6D2F1 (BDF1) mice
Settings: higher = longer survival
In short: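 Transplantable tumor model; survival measured in treated vs vehicle control mice. Value = treated/control.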

[1] = endpoint: mean survival time, dose: 25.0 mg/kg/injection, schedule: Q01DX009 (ip), vehicle: Klucel (hydroxypropylcellulose) (HPC)
[2] = endpoint: mean survival time, dose: 25.0 mg/kg/injection, schedule: Q04DX003 (ip), vehicle: Klucel (hydroxypropylcellulose) (HPC)
[3] = endpoint: mean survival time, dose: 50.0 mg/kg/injection, schedule: Q04DX003 (ip), vehicle: Klucel (hydroxypropylcellulose) (HPC)
[4] = endpoint: mean survival time, dose: 50.0 mg/kg/injection, schedule: Q01DX001 (ip), vehicle: carboxymethylcellulose (CMC)
[5] = endpoint: mean survival time, dose: 100.0 mg/kg/injection, schedule: Q01DX001 (ip), vehicle: carboxymethylcellulose (CMC)
[6] = endpoint: mean survival time, dose: 200.0 mg/kg/injection, schedule: Q01DX001 (ip), vehicle: carboxymethylcellulose (CMC)
[7] = endpoint: mean survival time, dose: 100.0 mg/kg/injection, schedule: Q04DX003 (ip), vehicle: Klucel (hydroxypropylcellulose) (HPC)
[8] = endpoint: mean survival time, dose: 400.0 mg/kg/injection, schedule: Q01DX001 (ip), vehicle: carboxymethylcellulose (CMC)
[9] = endpoint: mean survival time, dose: 50.0 mg/kg/injection, schedule: Q01DX009 (ip), vehicle: Klucel (hydroxypropylcellulose) (HPC)
[10] = endpoint: mean survival time, dose: 100.0 mg/kg/injection, schedule: Q01DX009 (ip), vehicle: Klucel (hydroxypropylcellulose) (HPC)
[11] = endpoint: mean survival time, dose: 200.0 mg/kg/injection, schedule: Q01DX009 (ip), vehicle: Klucel (hydroxypropylcellulose) (HPC)
[12] = endpoint: mean survival time, dose: 400.0 mg/kg/injection, schedule: Q01DX009 (ip), vehicle: Klucel (hydroxypropylcellulose) (HPC)

Measured: T/C

O=C(O)CCC(=O)Nc1cc(C(F)(F)F)ccc1Cl
inactive: endpoint: mean survival time, dose: 100.0 mg/kg/injection, schedule: Q04DX002 (ip), vehicle: saline 102 % of control | endpoint: mean survival time, dose: 200.0 mg/kg/injection, schedule: Q04DX002 (ip), vehicle: saline 97 % of control | endpoint: mean survival time, dose: 400.0 mg/kg/injection, schedule: Q04DX002 (ip), vehicle: saline 108 % of control

C[P+](Cc1ccc([N+](=O)[O-])cc1)(c1ccccc1)c1ccccc1
inactive: endpoint: mean survival time, dose: 12.5 mg/kg/injection, schedule: Q01DX009 (ip), vehicle: Klucel (hydroxypropylcellulose) (HPC) 99 % of control | endpoint: mean survival time, dose: 12.5 mg/kg/injection, schedule: Q04DX003 (ip), vehicle: Klucel (hydroxypropylcellulose) (HPC) 100 % of control | [1] 90 % of control | [2] 86 % of control | [3] 96 % of control

Nc1nc2c(ncn2-c2cccc3ccccc23)c(=O)[nH]1
inactive: endpoint: mean survival time, dose: 25.0 mg/kg/injection, schedule: Q01DX001 (ip), vehicle: saline with Tween-80 93 % of control | endpoint: mean survival time, dose: 50.0 mg/kg/injection, schedule: Q01DX001 (ip), vehicle: saline with Tween-80 119 % of control | endpoint: mean survival time, dose: 100.0 mg/kg/injection, schedule: Q01DX001 (ip), vehicle: saline with Tween-80 93 % of control

CCC1(CC)C(=O)NC(=O)N(C)C1=O
inactive: endpoint: mean survival time, dose: 100.0 mg/kg/injection, schedule: Q04DX002 (ip), vehicle: Klucel (hydroxypropylcellulose) (HPC) 112 % of control | endpoint: mean survival time, dose: 200.0 mg/kg/injection, schedule: Q04DX002 (ip), vehicle: Klucel (hydroxypropylcellulose) (HPC) 88 % of control

O=[N+]([O-])c1ccc(-[n+]2nc(-c3ccccc3)nn2-c2ccc(I)cc2)cc1
inactive: endpoint: mean survival time, dose: 8.0 mg/kg/injection, schedule: Q01DX015 (ip), vehicle: carboxymethylcellulose (CMC) 96 % of control | endpoint: mean survival time, dose: 16.0 mg/kg/injection, schedule: Q01DX015 (ip), vehicle: carboxymethylcellulose (CMC) 96 % of control | endpoint: mean survival time, dose: 32.0 mg/kg/injection, schedule: Q01DX015 (ip), vehicle: carboxymethylcellulose (CMC) 103 % of control | [4] 91 % of control | endpoint: mean survival time, dose: 64.0 mg/kg/injection, schedule: Q01DX015 (ip), vehicle: carboxymethylcellulose (CMC) 88 % of control

CCCC(=O)OCC1OC(n2cc(C)c(=O)[nH]c2=O)CC1OC(=O)CCC (stereo not given)
inactive: [5] 104 % of control | [6] 93 % of control

CCC1CCCCN1 (stereo not given)
inactive: endpoint: mean survival time, dose: 10.0 mg/kg/injection, schedule: Q01DX001 (ip), vehicle: saline 105 % of control | endpoint: mean survival time, dose: 10.0 mg/kg/injection, schedule: Q01DX009 (ip), vehicle: saline 108 % of control and 111 % of control | endpoint: mean survival time, dose: 10.0 mg/kg/injection, schedule: Q04DX002 (ip), vehicle: saline 95 % of control and 106 % of control | endpoint: mean survival time, dose: 10.0 mg/kg/injection, schedule: Q04DX003 (ip), vehicle: saline 103 % of control | endpoint: mean survival time, dose: 20.0 mg/kg/injection, schedule: Q01DX001 (ip), vehicle: saline 120 % of control | endpoint: mean survival time, dose: 20.0 mg/kg/injection, schedule: Q01DX009 (ip), vehicle: saline 104 % of control | endpoint: mean survival time, dose: 20.0 mg/kg/injection, schedule: Q04DX002 (ip), vehicle: saline 103 % of control | endpoint: mean survival time, dose: 20.0 mg/kg/injection, schedule: Q04DX003 (ip), vehicle: saline 101 % of control | endpoint: mean survival time, dose: 40.0 mg/kg/injection, schedule: Q01DX001 (ip), vehicle: saline 103 % of control | endpoint: mean survival time, dose: 40.0 mg/kg/injection, schedule: Q01DX009 (ip), vehicle: saline 104 % of control | endpoint: mean survival time, dose: 40.0 mg/kg/injection, schedule: Q04DX002 (ip), vehicle: saline 94 % of control and 98 % of control | endpoint: mean survival time, dose: 40.0 mg/kg/injection, schedule: Q04DX003 (ip), vehicle: saline 97 % of control

CC1OC1C(=O)Sc1ccccc1 (stereo not given)
inactive: [2] 100 % of control | [3] 103 % of control | [7] 93 % of control and 86 % of control

O=C(O)CCCc1ccccc1
inactive: [4] 94 % of control | [5] 108 % of control | endpoint: mean survival time, dose: 100.0 mg/kg/injection, schedule: Q04DX002 (ip), vehicle: saline with Tween-80 98 % of control | [6] 96 % of control | endpoint: mean survival time, dose: 200.0 mg/kg/injection, schedule: Q04DX002 (ip), vehicle: saline with Tween-80 91 % of control | [8] 107 % of control | endpoint: mean survival time, dose: 400.0 mg/kg/injection, schedule: Q04DX002 (ip), vehicle: saline with Tween-80 109 % of control

CC(C)=CC=O
inactive: endpoint: mean survival time, dose: 100.0 mg/kg/injection, schedule: Q01DX009 (ip), vehicle: saline sonified 97 % of control | endpoint: mean survival time, dose: 100.0 mg/kg/injection, schedule: Q04DX003 (ip), vehicle: saline 96 % of control | endpoint: mean survival time, dose: 200.0 mg/kg/injection, schedule: Q01DX009 (ip), vehicle: saline sonified 100 % of control | endpoint: mean survival time, dose: 200.0 mg/kg/injection, schedule: Q04DX003 (ip), vehicle: saline 97 % of control | endpoint: mean survival time, dose: 400.0 mg/kg/injection, schedule: Q04DX003 (ip), vehicle: saline 103 % of control

CCOc1nc(N)nc2n[nH]nc12
inactive: endpoint: mean survival time, dose: 82.0 mg/kg/injection, schedule: Q01DX Z (ip), vehicle: carboxymethylcellulose (CMC) 93 % of control | endpoint: mean survival time, dose: 175.0 mg/kg/injection, schedule: Q01DX Z (ip), vehicle: carboxymethylcellulose (CMC) 112 % of control | endpoint: mean survival time, dose: 262.0 mg/kg/injection, schedule: Q01DX Z (ip), vehicle: carboxymethylcellulose (CMC) 95 % of control

CCOC(=O)C(CCC(c1ccc(OC)cc1)c1ccc(OC)cc1)C(=O)OCC
inactive: endpoint: mean survival time, dose: 100.0 mg/kg/injection, schedule: Q01DX001 (ip), vehicle: saline 98 % of control | endpoint: mean survival time, dose: 200.0 mg/kg/injection, schedule: Q01DX001 (ip), vehicle: saline 93 % of control | endpoint: mean survival time, dose: 400.0 mg/kg/injection, schedule: Q01DX001 (ip), vehicle: saline 94 % of control

C=CCC(Cl)(C(=O)OC)C(=O)OC
inactive: endpoint: mean survival time, dose: 100.0 mg/kg/injection, schedule: Q04DX003 (ip), vehicle: saline with Tween-80 91 % of control | endpoint: mean survival time, dose: 200.0 mg/kg/injection, schedule: Q04DX003 (ip), vehicle: saline with Tween-80 89 % of control | endpoint: mean survival time, dose: 400.0 mg/kg/injection, schedule: Q04DX003 (ip), vehicle: saline with Tween-80 94 % of control

Nc1ccccc1/C=C/c1ccncc1
inactive: [9] 100 % of control | [10] 92 % of control | [11] 101 % of control | [12] 100 % of control

O=C(Cc1ccccc1S(=O)(=O)Nc1ccccc1)c1ccccc1
inactive: endpoint: mean survival time, dose: 100.0 mg/kg/injection, schedule: Q01DX001 (ip), vehicle: steriod suspending solution 96 % of control | endpoint: mean survival time, dose: 200.0 mg/kg/injection, schedule: Q01DX001 (ip), vehicle: steriod suspending solution 86 % of control | endpoint: mean survival time, dose: 400.0 mg/kg/injection, schedule: Q01DX001 (ip), vehicle: steriod suspending solution 91 % of control

N#CCC1COc2ccccc2O1 (stereo not given)
inactive: [5] 92 % of control | [6] 97 % of control | [8] 100 % of control

CC1C(=O)/C(=C/N(C)c2ccccc2)CC1C(=O)O (stereo not given)
inactive: endpoint: mean survival time, dose: 100.0 mg/kg/injection, schedule: Q01DX001 (ip), vehicle: Klucel (hydroxypropylcellulose) (HPC) 93 % of control | [7] 100 % of control | endpoint: mean survival time, dose: 200.0 mg/kg/injection, schedule: Q01DX001 (ip), vehicle: Klucel (hydroxypropylcellulose) (HPC) 93 % of control | [11] 97 % of control | endpoint: mean survival time, dose: 200.0 mg/kg/injection, schedule: Q04DX003 (ip), vehicle: Klucel (hydroxypropylcellulose) (HPC) 98 % of control | endpoint: mean survival time, dose: 400.0 mg/kg/injection, schedule: Q01DX001 (ip), vehicle: Klucel (hydroxypropylcellulose) (HPC) 87 % of control | [12] 97 % of control | endpoint: mean survival time, dose: 400.0 mg/kg/injection, schedule: Q04DX003 (ip), vehicle: Klucel (hydroxypropylcellulose) (HPC) 98 % of control

COc1ccc2c(ccc3oc([N+](=O)[O-])cc32)c1
inactive: endpoint: median survival time, dose: 12.5 mg/kg/injection, schedule: Q01DX009 (ip), vehicle: Klucel (hydroxypropylcellulose) (HPC) 100 % of control | endpoint: median survival time, dose: 25.0 mg/kg/injection, schedule: Q01DX009 (ip), vehicle: Klucel (hydroxypropylcellulose) (HPC) 95 % of control | endpoint: median survival time, dose: 50.0 mg/kg/injection, schedule: Q01DX009 (ip), vehicle: Klucel (hydroxypropylcellulose) (HPC) 101 % of control | endpoint: median survival time, dose: 100.0 mg/kg/injection, schedule: Q01DX009 (ip), vehicle: Klucel (hydroxypropylcellulose) (HPC) 108 % of control | endpoint: median survival time, dose: 200.0 mg/kg/injection, schedule: Q01DX009 (ip), vehicle: Klucel (hydroxypropylcellulose) (HPC) 106 % of control

C[N+](C)(C)CCOc1ccc(Cl)cc1
inactive: endpoint: mean survival time, dose: 12.0 mg/kg/injection, schedule: Q04DX003 (ip), vehicle: Klucel (hydroxypropylcellulose) (HPC) 91 % of control | [1] 103 % of control | [2] 93 % of control | [9] 106 % of control | [3] 96 % of control | [10] 98 % of control
